In the supplement of paper PMC10307832:

Key:
Assay in all cases: relative viability (nuclei count vs DMSO), 5 days (fraction); higher = more cells survive
[1] = compound: Cc1ccc2nc(NCCN)c3ncc(C)n3c2c1 + O=C(CCCCCCC(=O)Nc1ccccc1)NO [Vorinostat] (partner 1 µM)
How it was run: (§1)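 Relative viability divides the nuclei count in treated wells by that in vehicle wells. Lung cancer cell lines were seeded in 1536-well plates, dosed by pin tool the next day, and fixed and stained after 5 days in one step with final 0.05% Triton X-100, 1% formaldehyde and 1 ug/ml Hoechst. Dosing was a single drug or a fixed anchor-drug dose plus five library-drug doses (not always all listed) in √10 steps, and values are medians of duplicate plates imaged at 4×.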

[2] = compound: O=C(/C=C/c1ccccc1)NC(NC(=S)Nc1cccc2cccnc12)C(Cl)(Cl)Cl [Salubrinal] + Cc1nc(Nc2ncc(C(=O)Nc3c(C)cccc3Cl)s2)cc(N2CCN(CCO)CC2)n1 [Dasatinib] (partner 0.075 µM)
How it was run: as §1

[3] = compound: O=C(/C=C/c1ccccc1)NC(NC(=S)Nc1cccc2cccnc12)C(Cl)(Cl)Cl [Salubrinal] + Nc1ncn([C@H]2C[C@H](O)[C@@H](CO)O2)c(=O)n1 [Decitabine] (partner 2 µM)
How it was run: as §1

[4] = compound: O=C(/C=C/c1ccccc1)NC(NC(=S)Nc1cccc2cccnc12)C(Cl)(Cl)Cl [Salubrinal] + O=C(CCCCCCC(=O)Nc1ccccc1)NO [Vorinostat] (partner 1 µM)
How it was run: as §1

Row | Cell Line | relative viability ([1]; first compound 0.04 µM) | relative viability ([1]; first compound 0.1265 µM) | relative viability ([1]; first compound 0.4 µM) | relative viability ([1]; first compound 1.265 µM) | relative viability ([1]; first compound 4 µM) | relative viability ([2]; first compound 0.08 µM) | relative viability ([2]; first compound 0.253 µM) | relative viability ([2]; first compound 0.8 µM) | relative viability ([2]; first compound 2.53 µM) | relative viability ([2]; first compound 8 µM) | relative viability ([3]; first compound 0.08 µM) | relative viability ([3]; first compound 0.8 µM) | relative viability ([3]; first compound 2.53 µM) | relative viability ([3]; first compound 8 µM) | relative viability ([4]; first compound 0.08 µM) | relative viability ([4]; first compound 0.8 µM) | relative viability ([4]; first compound 2.53 µM) | relative viability ([4]; first compound 8 µM) | relative viability ([3]; first compound 0.253 µM) | relative viability ([4]; first compound 0.253 µM)
1 | HCC-366 | 0.421 | 0.359 | 0.244 | 0.361 | 0.296 | 0.813 | 0.497 | 0.777 | 0.555 | 0.528 | 0.371 | 0.374 | 0.392 | 0.301 | 0.494 | 0.443 | 0.364 | 0.345 | – | –
2 | HCC-827 | 0.851 | 0.793 | 0.872 | 0.857 | 0.81 | 0.357 | 0.251 | 0.27 | 0.326 | 0.393 | 0.303 | 0.361 | 0.345 | 0.341 | 0.838 | 0.965 | 0.788 | 0.785 | 0.335 | 0.917
3 | HOP-62 | 0.647 | 0.752 | 0.401 | 0.602 | 0.663 | 0.662 | 0.586 | 0.703 | 0.742 | 0.478 | 0.192 | 0.196 | 0.187 | 0.224 | 0.657 | 0.627 | 0.563 | 0.616 | 0.206 | 0.498
4 | IA-LM | 0.92 | 0.917 | – | 1.06 | 0.981 | – | – | – | – | – | – | – | – | – | 0.974 | 0.882 | 0.816 | 1.03 | – | 0.645
5 | LC-2-ad | 0.724 | 0.689 | 0.652 | 0.69 | 0.689 | 0.543 | 0.354 | 1.11 | 0.581 | 0.448 | 0.751 | 0.792 | 0.771 | 0.813 | 0.735 | 0.692 | 0.651 | 0.665 | 0.63 | 0.644
6 | LCLC-97TM1 | 0.865 | 0.867 | 0.526 | 0.759 | 0.737 | 1.02 | 0.731 | 1.01 | 0.969 | 0.782 | 0.248 | 0.234 | 0.21 | 0.257 | 0.751 | 1.04 | 0.939 | 0.656 | 0.223 | 0.739
7 | LCLC-103H | 0.859 | 0.821 | 0.686 | 0.697 | 0.751 | 0.501 | 0.35 | 0.514 | 0.53 | 0.507 | 0.772 | 0.718 | 0.782 | 0.608 | 0.725 | 0.891 | 0.714 | 0.748 | 0.696 | 0.716
8 | LK-2 | 0.384 | 0.409 | 0.302 | 0.315 | 0.322 | 0.378 | 0.302 | 0.296 | 0.312 | 0.342 | 0.269 | 0.399 | 0.385 | 0.266 | 0.257 | 0.356 | 0.395 | 0.325 | 0.306 | 0.279
9 | LOU-NH91 | 1.02 | 0.902 | 0.87 | 0.931 | 0.858 | 0.565 | 0.481 | 0.672 | 0.56 | 0.499 | 0.837 | 0.817 | 0.845 | 0.777 | 0.933 | 1.08 | 0.903 | 0.841 | 0.842 | 0.925
10 | LU99A | 0.532 | 0.512 | 0.423 | 0.494 | 0.476 | 0.537 | 0.597 | 0.688 | 0.593 | 0.416 | 1.05 | 0.938 | 0.951 | 0.757 | 0.621 | 0.578 | 0.546 | 0.513 | 0.844 | 0.481
11 | LXF-289 | 0.765 | 0.639 | 0.795 | 0.629 | 0.806 | 0.173 | 0.241 | 0.234 | 0.236 | 0.15 | 0.338 | 0.357 | 0.43 | 0.405 | 0.897 | 0.908 | 0.873 | 0.76 | 0.382 | 0.707
12 | NCI-H23 | 0.759 | 0.654 | 0.501 | 0.493 | 0.578 | 0.881 | 0.942 | 0.696 | 0.78 | 0.925 | 0.315 | 0.304 | 0.312 | 0.291 | 0.784 | 0.644 | 0.486 | 0.69 | 0.316 | 0.614
13 | NCI-H322M | 0.991 | 0.86 | 0.957 | 1 | 1.09 | 0.267 | 0.24 | 0.256 | 0.265 | 0.274 | 0.785 | 0.684 | 0.716 | 0.656 | 0.909 | 0.831 | 0.89 | 0.85 | 0.648 | 0.85
14 | NCI-H358 | 0.74 | 0.617 | 0.66 | 0.629 | 0.564 | 0.173 | 0.23 | 0.154 | 0.149 | 0.145 | 0.24 | 0.234 | 0.188 | 0.202 | 0.804 | 0.757 | 0.641 | 0.661 | 0.219 | 0.659
15 | NCI-H441 | 0.925 | 0.822 | 0.848 | 0.806 | 0.731 | 0.781 | 0.5 | 0.756 | 0.65 | 0.47 | 0.235 | 0.265 | 0.269 | 0.222 | 0.824 | 1.18 | 0.605 | 0.616 | 0.243 | 0.563
16 | NCI-H1563 | – | – | – | – | – | 0.446 | 0.514 | 0.555 | 0.453 | 0.502 | – | – | – | – | – | – | – | – | – | –
17 | NCI-H1648 | 0.337 | 0.458 | 0.362 | 0.4 | 0.317 | – | – | – | – | – | 0.615 | 0.632 | 0.493 | 0.366 | 0.431 | 0.649 | 0.345 | 0.242 | 0.483 | 0.419
18 | NCI-H1792 | – | – | – | – | – | 0.822 | – | 0.723 | 0.81 | 0.702 | 0.608 | 0.741 | 0.49 | 0.405 | – | – | – | – | – | –
19 | NCI-H2228 | 0.639 | 0.589 | 0.858 | 0.595 | 0.544 | 0.568 | 0.485 | 0.508 | 0.528 | 0.431 | – | – | – | – | 0.99 | 0.652 | 0.659 | 0.642 | – | –
